Assay results published in patent US20100190747A1, “Fused ring compound and use thereof” (priority 2009, published 2010).

How the values were obtained:
delta-5-desaturase = molecular target: T1, delta-5-desaturase (Rattus norvegicus, UniProt Q920R3); assay: Inhibitory activity on delta-5-desaturase (rat liver microsomal fraction, 14C-eicosatrienoic acid, TLC); assay type: biochemical; details: test compound at 10 μM, room temperature, 120 minutes
T1 construct: the microsomal fraction of a rat river (10 μl), which had been diluted to 3 mg/ml; from tissue; host or cells: rat liver microsomal fraction
Outline: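 Rat liver microsomes (3 mg/ml before addition) incubated with test compound at 10 μM, NADH, ATP, CoA and 14C-eicosatrienoic acid in phosphate buffer pH 7.4 with BSA and glutathione, 120 min at room temperature. Lipids saponified, extracted, separated by reverse-phase TLC and imaged; % inhibition reported.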

[1] = test system: atherogenic diet fed apoE-deficient mice; assay: Anti-atherosclerotic and anti-obesity effects in atherogenic diet fed apoE-deficient mice; assay type: in vivo; details: 10 mg/kg/day p.o. for 15 weeks, male apoE-deficient mice on high fat diet, vehicle group taken as 100%; for Reduction in atherosclerotic lesion area (%): aorta, oil red O staining
Method: Assessments of anti-atherosclerotic effects and anti-obesity effects on atherogenic diet fed apoE-deficient mice were performed by the method described below.
Male apoE-deficient mice of 11-13 week-age (Jacson Lab) conditioned with ordinary diet (Research Diet) in separate cages were allowed to take high fat diet (Research Diet) at libitum for 14 weeks to thereby form atherosclerotic lesions in the aorta. The test compound suspended in 0.5% methyl cellulose solution was forcedly and orally administered to the mice at 10 ml/kg everyday for 15 weeks from 1 week prior to the start of the high fat diet feeding. Body weights were measured on the day of autopsy. The body weight reduction ratio of test compound-administered group was calculated taking the body weight of vehicle-administered group as 100%, to thereby obtain an index for anti-obesity effects. The aorta (from immediately above the aortic valve to the ventral branch of common iliac artery) removed under anesthesia was totally incised after removal of adipose tissue, etc. adhering to the outer membrane of the aorta, to thereby prepare an incised aorta specimen. After formalin fixing, the incised aorta specimen was subjected to staining with oil red O. The thus stained incised aorta specimen was photographed with a digital camera. Subsequently, image analysis using Image Pro program (Planetron, Inc.) was performed to determine the area of atherosclerotic lesions stained red and the total area of the incised specimen (the area of vascular inner wall). The ratio of atherosclerotic lesions (%) was calculated by dividing the area of atherosclerotic lesions by the area of vascular inner wall. The reduction ratio of the atherosclerotic lesion area (%) in test compound-administered group was calculated taking the area of atherosclerotic lesions in vehicle-administered group as 100%, to thereby obtain an index for anti-atherosclerotic effects. All the measurement of the ratio of atherosclerotic lesions was performed in a blind fashion.

ob/ob mice = assay: Anti-diabetic effects in ob/ob mice, a type 2 diabetic model; assay type: in vivo; details: 10 mg/kg/day p.o. once a day for 6 weeks; male ob/ob mice; vehicle group 7.1%
Method: Anti-diabetic effects in ob/ob mice, a type 2 diabetic model were evaluated as describe next.
Male 9-week-old ob/ob mice (Charls river) habituated for a week were housed individually and freely fed a normal chow (CE-2, Japan Clea). The test compound was suspended in 0.5% methylcellulose solution. Vehicle (0.5% methylcellulose) or the compound was orally administered (5 mL/kg) once a day for 6 weeks. At the end of the treatment, bloods were collected from tail vein. The levels of glycosylated hemoglobin were measured as an index of diabetes severity using automated GHb analyzer (TOSOH Corporation).

T1 sequence (Q920R3 whole entry): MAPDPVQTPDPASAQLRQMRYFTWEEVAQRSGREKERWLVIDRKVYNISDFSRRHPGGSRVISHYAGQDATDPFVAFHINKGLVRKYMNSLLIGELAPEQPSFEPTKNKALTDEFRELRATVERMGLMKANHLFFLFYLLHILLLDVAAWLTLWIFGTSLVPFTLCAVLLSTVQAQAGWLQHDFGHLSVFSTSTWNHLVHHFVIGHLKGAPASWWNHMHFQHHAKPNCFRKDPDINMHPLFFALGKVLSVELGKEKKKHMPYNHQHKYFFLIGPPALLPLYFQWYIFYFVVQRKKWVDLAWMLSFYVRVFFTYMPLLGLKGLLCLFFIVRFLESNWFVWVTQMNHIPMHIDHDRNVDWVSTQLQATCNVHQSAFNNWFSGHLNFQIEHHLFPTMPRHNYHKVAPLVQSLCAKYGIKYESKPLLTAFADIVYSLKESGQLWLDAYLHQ

| inhibition at 10 µM (delta-5-desaturase) [%] | SMILES | Reduction in atherosclerotic lesion area (%) [1] [%] | Reduction in body weight (%) [1] [%] | Glycosylated hemoglobin (%) (ob/ob mice) |
| --- | --- | --- | --- | --- |
| 100 | O=C1Cc2c(nc(OCC(F)(F)F)n(-c3ccc(OCC(F)(F)F)cc3)c2=O)N1 [Example 274, 2-(2,2,2-Trifluoroethoxy)-3-[4-(2,2,2-trifluoroethoxy)phenyl]-5,7-dihydro-3H-pyrrolo[2,3-d]pyrimidine-4,6-dione] | 26 | 8 |  |
| 102 | O=C1Cc2c(nc(OCC(F)(F)C(F)(F)F)n(-c3ccc(OCC(F)(F)F)cc3)c2=O)N1 [Example 326, 2-(2,2,3,3,3-Pentafluoropropoxy)-3-[4-(2,2,2-trifluoroethoxy)phenyl]-5,7-dihydro-3H-pyrrolo[2,3-d]pyrimidine-4,6-dione] | 41 | 11 | 6.0 |
| 101 | O=C1Cc2c(nc(SCC3CC3)n(-c3ccc(OCC(F)(F)F)cc3)c2=O)N1 [Example 297, 2-[(Cyclopropylmethyl)sulfanyl]-3-[4-(2,2,2-trifluoroethoxy)phenyl]-5,7-dihydro-3H-pyrrolo[2,3-d]pyrimidine-4,6-dione] | 26 | 8 |  |
